Tests used:
[1] = tested on: BCL2 (DNA, G4) CGGGCGCGGGAGGAATTGGGCGGGAGC; assay: ethidium bromide displacement, fluorescence; details: 100 mM KCl, K+ phosphate; 10 mM potassium phosphate pH 7.0; 5 µM ethidium bromide displaced, 10 µM DNA
[2] = tested on: BCL2 (DNA, G4) CGGGCGCGGGAGGAATTGGGCGGGAGC; assay: ITC; details: 100 mM KCl, K+ phosphate; 10 mM potassium phosphate pH 7.0, 25 °C; 100 µM DNA injected into 10 µM compound; one set of sites
[3] = tested on: KRAS (DNA, G4) GGGAGGGAGGGAAGGAGGGAGGGAGGGA; assay: ITC; details: 100 mM KCl, K+ phosphate; 10 mM potassium phosphate pH 7.0, 25 °C; 100 µM DNA injected into 10 µM compound; one set of sites
[4] = tested on: BCL2 (DNA, G4) CGGGCGCGGGAGGAATTGGGCGGGAGC; assay: CD melting; details: 100 mM KCl, K+ phosphate; 10 mM potassium phosphate pH 7.0; 1:2 DNA:compound (10 µM DNA in CD titration); Tm free 57.1
[5] = tested on: VEGFA (DNA, G4) GGGGGCGGGCCGGGGGCGGGGTCCCGGCGGGGCGGAG; assay: fluorescence anisotropy of compound; details: 100 mM KCl, K+ phosphate; 10 mM potassium phosphate pH 7.0; 10 µM compound titrated with DNA
[6] = tested on: VEGFA (DNA, G4) GGGGGCGGGCCGGGGGCGGGGTCCCGGCGGGGCGGAG; assay: ethidium bromide displacement, fluorescence; details: 100 mM KCl, K+ phosphate; 10 mM potassium phosphate pH 7.0; 5 µM ethidium bromide displaced, 10 µM DNA
[7] = tested on: BCL2 (DNA, G4) CGGGCGCGGGAGGAATTGGGCGGGAGC; assay: fluorescence anisotropy of compound; details: 100 mM KCl, K+ phosphate; 10 mM potassium phosphate pH 7.0; 10 µM compound titrated with DNA
[8] = tested on: KRAS (DNA, G4) GGGAGGGAGGGAAGGAGGGAGGGAGGGA; assay: UV absorption titration (316 nm); details: 100 mM KCl, K+ phosphate; 10 mM potassium phosphate pH 7.0; 10 µM compound titrated with 0–20 µM DNA; one-site fit
[9] = tested on: VEGFA (DNA, G4) GGGGGCGGGCCGGGGGCGGGGTCCCGGCGGGGCGGAG; assay: UV absorption titration (316 nm); details: 100 mM KCl, K+ phosphate; 10 mM potassium phosphate pH 7.0; 10 µM compound titrated with 0–20 µM DNA; one-site fit
[10] = tested on: GC rich duplex DNA (DNA, duplex) AGGGTGGGGAGGGT/ACCCTCCCCACCCT; assay: UV absorption titration; details: 100 mM KCl, K+ phosphate; 10 mM potassium phosphate pH 7.0; 10 µM compound, 0–20 µM duplex; quadruplex affinity 4–16 fold higher
[11] = tested on: GC rich duplex DNA (DNA, duplex) AGGGTGGGGAGGGT/ACCCTCCCCACCCT; assay: fluorescence anisotropy of compound; details: 100 mM KCl, K+ phosphate; 10 mM potassium phosphate pH 7.0; 10 µM compound, 0–20 µM duplex
[12] = tested on: VEGFA (DNA, G4) GGGGGCGGGCCGGGGGCGGGGTCCCGGCGGGGCGGAG; assay: ITC; details: 100 mM KCl, K+ phosphate; 10 mM potassium phosphate pH 7.0, 25 °C; 100 µM DNA injected into 10 µM compound; one set of sites
[13] = tested on: VEGFA (DNA, G4) GGGGGCGGGCCGGGGGCGGGGTCCCGGCGGGGCGGAG; assay: CD melting; details: 100 mM KCl, K+ phosphate; 10 mM potassium phosphate pH 7.0; 1:2 DNA:compound (10 µM DNA in CD titration); Tm free 67.3
[14] = tested on: KRAS (DNA, G4) GGGAGGGAGGGAAGGAGGGAGGGAGGGA; assay: ethidium bromide displacement, fluorescence; details: 100 mM KCl, K+ phosphate; 10 mM potassium phosphate pH 7.0; 5 µM ethidium bromide displaced, 10 µM DNA
[15] = tested on: KRAS (DNA, G4) GGGAGGGAGGGAAGGAGGGAGGGAGGGA; assay: fluorescence anisotropy of compound; details: 100 mM KCl, K+ phosphate; 10 mM potassium phosphate pH 7.0; 10 µM compound titrated with DNA
[16] = tested on: KRAS (DNA, G4) GGGAGGGAGGGAAGGAGGGAGGGAGGGA; assay: CD melting; details: 100 mM KCl, K+ phosphate; 10 mM potassium phosphate pH 7.0; 1:2 DNA:compound (10 µM DNA in CD titration); Tm free 67.5
[17] = tested on: GC rich duplex DNA (DNA, duplex) AGGGTGGGGAGGGT/ACCCTCCCCACCCT; assay: ITC; details: 100 mM KCl, K+ phosphate; 10 mM potassium phosphate pH 7.0, 25 °C; 100 µM duplex injected into 10 µM compound
[18] = tested on: BCL2 (DNA, G4) CGGGCGCGGGAGGAATTGGGCGGGAGC; assay: UV absorption titration (316 nm); details: 100 mM KCl, K+ phosphate; 10 mM potassium phosphate pH 7.0; 10 µM compound titrated with 0–20 µM DNA; one-site fit

binding [1]: yes
KD [2]: 0.6 µM
KD [3]: 0.87 µM
∆Tm [4]: 16.2 °C
KD [5]: 0.25 µM
binding [6]: yes
KD [7]: 3.2 µM
KD [8]: 0.72 ± 0.2 µM
KD [9]: 0.51 ± 0.3 µM
KD [10]: 8.33 ± 0.4 µM
KD [11]: 6.14 ± 2.0 µM
KD [12]: 0.98 µM
∆Tm [13]: 3.3 °C
binding [14]: yes
KD [15]: 1.5 µM
∆Tm [16]: 4.6 °C
KD [17]: 4.33 µM
KD [18]: 1.92 ± 0.7 µM
Compound: COc1ccc2c(c[n+](C)c3c4cc5c(cc4ccc23)OCO5)c1OC

From paper PMC5244364 (2017)
